In PMC3083694, “Effects of Intermediates between Vitamins K2 and K3 on Mammalian DNA Polymerase Inhibition and Anti-Inflammatory Activity” (International Journal of Molecular Sciences, 2011):

Key:
Calf DNA polymerase α = target: T1, Calf DNA polymerase α (Bos taurus, UniProt A0AAA9TD94); assay: DNA polymerase activity assay, calf pol α; format: biochemical; conditions: for Inhibitory effect on calf pol α activity: 50 μM of each compound, Figure 2
T1 construct: made in house
T1 sequence (A0AAA9TD94 1-1441): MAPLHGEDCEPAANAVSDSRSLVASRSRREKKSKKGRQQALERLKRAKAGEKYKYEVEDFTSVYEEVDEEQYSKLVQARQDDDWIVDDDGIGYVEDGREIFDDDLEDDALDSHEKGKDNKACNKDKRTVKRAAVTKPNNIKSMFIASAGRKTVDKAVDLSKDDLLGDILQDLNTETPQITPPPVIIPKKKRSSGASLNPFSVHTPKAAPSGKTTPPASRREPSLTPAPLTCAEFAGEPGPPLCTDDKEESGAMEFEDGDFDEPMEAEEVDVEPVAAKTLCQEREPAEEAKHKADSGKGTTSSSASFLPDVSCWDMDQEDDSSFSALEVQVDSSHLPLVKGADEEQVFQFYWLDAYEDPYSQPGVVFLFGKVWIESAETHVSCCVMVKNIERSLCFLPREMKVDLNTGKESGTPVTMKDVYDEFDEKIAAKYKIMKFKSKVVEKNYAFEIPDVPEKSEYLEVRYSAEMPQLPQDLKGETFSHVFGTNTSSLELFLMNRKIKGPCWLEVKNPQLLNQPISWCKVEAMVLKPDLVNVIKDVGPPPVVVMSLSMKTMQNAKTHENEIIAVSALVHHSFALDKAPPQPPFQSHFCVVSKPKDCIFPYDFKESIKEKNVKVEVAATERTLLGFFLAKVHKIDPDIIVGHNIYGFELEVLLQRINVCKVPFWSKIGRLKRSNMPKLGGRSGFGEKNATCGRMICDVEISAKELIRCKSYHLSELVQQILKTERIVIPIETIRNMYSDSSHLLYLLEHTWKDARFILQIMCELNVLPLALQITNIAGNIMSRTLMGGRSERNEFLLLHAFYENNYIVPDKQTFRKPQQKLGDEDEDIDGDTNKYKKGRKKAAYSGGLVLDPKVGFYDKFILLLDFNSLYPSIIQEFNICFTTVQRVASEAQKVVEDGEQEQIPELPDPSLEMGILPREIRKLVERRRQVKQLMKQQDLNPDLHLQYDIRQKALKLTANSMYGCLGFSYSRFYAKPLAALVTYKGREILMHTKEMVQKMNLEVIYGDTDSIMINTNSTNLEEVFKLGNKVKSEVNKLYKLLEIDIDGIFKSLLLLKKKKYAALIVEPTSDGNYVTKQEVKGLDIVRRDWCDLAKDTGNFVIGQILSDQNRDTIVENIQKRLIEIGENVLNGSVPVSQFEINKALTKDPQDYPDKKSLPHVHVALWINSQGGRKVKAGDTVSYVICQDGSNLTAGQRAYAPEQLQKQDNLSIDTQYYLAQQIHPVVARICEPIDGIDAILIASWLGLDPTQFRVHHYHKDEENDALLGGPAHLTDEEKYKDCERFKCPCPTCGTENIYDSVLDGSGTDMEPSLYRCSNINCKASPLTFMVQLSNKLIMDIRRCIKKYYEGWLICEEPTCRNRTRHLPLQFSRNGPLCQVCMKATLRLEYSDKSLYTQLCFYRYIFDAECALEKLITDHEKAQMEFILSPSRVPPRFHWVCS
Experimental: (§1) Pols from mammals, a fish (cherry salmon), an insect (fruit fly) and a plant (cauliflower) were purified, and prokaryotic pols and other DNA metabolic enzymes, such as T7 RNA polymerase, T4 polynucleotide kinase and bovine deoxyribonuclease I, were purchased as described in our previous report. The activities of all pols and other DNA metabolic enzymes were measured as described in previous reports.
(§2) The components of the pol assay were poly(dA)/oligo(dT)18 and dTTP as the DNA template-primer and 2′-deoxyribonucleoside 5′-triphosphate (dNTP) substrate, respectively. VK2, VK3, and their synthesized derivatives (i.e., MK-3, MK-2 and MK-1) were dissolved in dimethyl sulfoxide (DMSO) at various concentrations and sonicated for 30 s. The sonicated samples (4 μL) were mixed with 16 μL of each pol enzyme (final amount, 0.05 units) in 50 mM Tris-HCl (pH 7.5) containing 1 mM dithiothreitol, 50% glycerol and 0.1 mM EDTA, and kept at 0 °C for 10 min. These inhibitor–enzyme mixtures (8 μL) were added to 16 μL of each standard enzyme reaction mixture (50 mM Tris-HCl [pH 7.5], 1 mM dithiothreitol, 1 mM MgCl2, 15% glycerol, 10 μM poly(dA)/oligo(dT)18 and 10 μM [^3H]-dTTP), and incubation was carried out at 37 °C for 60 min, except for Taq pol, which was incubated at 74 °C for 60 min. Activity without the inhibitor was considered to be 100%, and the activity remaining at each concentration of inhibitor was determined relative to this value. One unit of pol activity was defined as the amount of enzyme that catalyzed the incorporation of 1 nmol dNTP (dTTP) into the synthetic DNA template-primer (poly(dA)/oligo(dT)18, A/T = 2/1) in 60 min at 37 °C under normal reaction conditions for each enzyme (scintillation counts: approximately 1 pmol of incorporated radioactive nucleotides = 100 cpm).

Human DNA polymerase λ = target: T2, Human DNA polymerase λ (Homo sapiens, UniProt Q9UGP5); assay: DNA polymerase activity assay, human pol λ; format: biochemical; conditions: for Inhibitory effect on human pol λ activity: 50 μM of each compound, Figure 2
T2 construct: made in house
T2 sequence (Q9UGP5 1-575): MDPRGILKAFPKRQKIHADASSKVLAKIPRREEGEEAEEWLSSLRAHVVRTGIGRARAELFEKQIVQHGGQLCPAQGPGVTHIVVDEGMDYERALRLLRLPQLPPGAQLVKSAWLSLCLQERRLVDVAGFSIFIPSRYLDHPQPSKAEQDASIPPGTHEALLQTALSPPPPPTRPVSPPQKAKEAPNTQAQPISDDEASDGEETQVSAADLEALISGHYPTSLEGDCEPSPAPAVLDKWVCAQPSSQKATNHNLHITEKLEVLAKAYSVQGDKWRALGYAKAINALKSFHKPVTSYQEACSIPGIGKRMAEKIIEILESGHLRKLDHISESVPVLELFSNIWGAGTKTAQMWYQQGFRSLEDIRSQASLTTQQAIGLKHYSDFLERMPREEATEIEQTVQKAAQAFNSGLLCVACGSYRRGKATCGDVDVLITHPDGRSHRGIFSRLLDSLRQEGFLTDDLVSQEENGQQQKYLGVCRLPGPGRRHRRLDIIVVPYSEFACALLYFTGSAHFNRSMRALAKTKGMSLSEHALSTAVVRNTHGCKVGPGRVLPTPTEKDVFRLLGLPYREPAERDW
Experimental: as §1, §2

## CC(C)=CCC/C(C)=C/CC/C(C)=C/CC/C(C)=C/CC1=C(C)C(=O)c2ccccc2C1=O [MK-4, menaquinone 4, reference compound]
Calf DNA polymerase α
  Inhibitory effect on calf pol α activity: had no effect on pol activity
Human DNA polymerase λ
  Inhibitory effect on human pol λ activity: had no effect on pol activity

## CC(C)=CCC/C(C)=C/CC1=C(C)C(=O)c2ccccc2C1=O [MK-2]
Calf DNA polymerase α
  Inhibitory effect on calf pol α activity: inhibited the activity
Calf DNA polymerase α; B-family pol, read-out: IC50 Value of MK-2, Calf DNA polymerase α
  IC50: 27.6 ± 1.6 µM
Human DNA polymerase λ
  Inhibitory effect on human pol λ activity: inhibited the activity
Human DNA polymerase λ; X-family pol, read-out: IC50 Value of MK-2, Human DNA polymerase λ
  IC50: 24.6 ± 1.4 µM

## CC(C)=CCC/C(C)=C/CC/C(C)=C/CC1=C(C)C(=O)c2ccccc2C1=O [MK-3]
Calf DNA polymerase α
  Inhibitory effect on calf pol α activity: inhibited the activity
Human DNA polymerase λ
  Inhibitory effect on human pol λ activity: inhibited the activity

## CC(C)=CCC1=C(C)C(=O)c2ccccc2C1=O [MK-1]
Calf DNA polymerase α
  Inhibitory effect on calf pol α activity: inhibited the activity
Human DNA polymerase λ
  Inhibitory effect on human pol λ activity: inhibited the activity
